What all share (format): functional
Assay [1] is filed under the species Homo sapiens. Briefly: In vitro cytotoxicity against Breast avg 1-3 types of human tumors following a 6 day exposure. The note with it: 144 h, read-out: ED50 (the source's name).
Another assay relates to HT-29. Briefly: In vitro cytotoxicity against Colon HT-29 human tumors following a 6 day exposure. The note with it: HT-29, 144 h, read-out: ED50 (the source's name).
For a further assay, the system named is PC-3. Nature of the assay: In vitro cytotoxicity against prostate PC-3 human tumors following a 6 day exposure. The note with it: PC-3, 144 h, read-out: ED50 (the source's name).
For assay [2], the species on record is Homo sapiens. Nature of the assay: In vitro cytotoxicity against various human tumors (6-8 lines) as determined in the Purdue cell culture laboratory, following a 6 day exposure. As to conditions: 144 h, read-out: ED50 (the source's name).
The test system of a further assay is A498. Briefly: In vitro cytotoxicity against Renal A-498 human tumors following a 6 day exposure. As to conditions: A498, 144 h, read-out: ED50 (the source's name).
For the next assay, the system named is A549. Nature of the assay: In vitro cytotoxicity against Lung A-549 human tumors following a 6 day exposure. The note with it: A549, 144 h, read-out: ED50 (the source's name).
Another assay deals with MIA PaCa-2. Nature of the assay: In vitro cytotoxicity against […] PACA-2 human tumors following a 6 day exposure. The note with it: MIA PaCa-2, 144 h, read-out: ED50 (the source's name).

The source of these data is ChEMBL document CHEMBL1131966, “On topography and functionality in the B-D rings of cephalostatin cytotoxins” (Bioorg Med Chem Lett, 1999).

With `COc1cccc2c1C(=O)c1c(O)c3c(c(O)c1C2=O)C[C@@](O)(C(=O)CO)C[C@@H]3O[C@H]1C[C@H](N)[C@H](O)[C@H](C)O1` [DOXORUBICIN], the EC50 stood at 150 nM in the assay filed under Homo sapiens [1]; 37 nM in the assay on HT-29; 57 nM with PC-3; 18.7 nM in the assay listed under Homo sapiens [2]; 3.5 nM with A498; 6.2 nM in the assay on A549. The EC50 with MIA PaCa-2 turned out to be 6.3 nM.
